Data published in the supplement of paper PMC10307832.

What was measured:
Assay in all cases: relative viability (nuclei count vs DMSO), 5 days (fraction); higher = more cells survive
EKVX = system: EKVX
Method in brief: (§1)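 Relative viability is defined as nuclei in treated wells over nuclei in vehicle wells. Duplicate plates were run and medians reported. Lung cancer cell lines in 1536-well plates were dosed by pin tool one day after seeding, with one drug or with a fixed anchor-drug dose plus five library-drug doses (not always all listed) in √10 steps, and nuclei were counted after 5 days.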

EMC-BAC-2 = system: EMC-BAC-2
Method in brief: as §1

EPLC-272H = system: EPLC-272H
Method in brief: as §1

HCC-78 = system: HCC-78
Method in brief: as §1

HCC-827 = system: HCC-827
Method in brief: as §1

LCLC-103H = system: LCLC-103H
Method in brief: as §1

LK-2 = system: LK-2
Method in brief: as §1

LU99A = system: LU99A
Method in brief: as §1

NCI-H1563 = system: NCI-H1563
Method in brief: as §1

NCI-H1666 = system: NCI-H1666
Method in brief: as §1

NCI-H1975 = system: NCI-H1975
Method in brief: as §1

NCI-H2126 = system: NCI-H2126
Method in brief: as §1

NCI-H23 = system: NCI-H23
Method in brief: as §1

NCI-H2405 = system: NCI-H2405
Method in brief: as §1

NCI-H322M = system: NCI-H322M
Method in brief: as §1

PC-14 = system: PC-14
Method in brief: as §1

RERF-LC-KJ = system: RERF-LC-KJ
Method in brief: as §1

SK-LU-1 = system: SK-LU-1
Method in brief: as §1

SW 1573 = system: SW 1573
Method in brief: as §1

`CC(=O)O[C@@]12CO[C@@H]1C[C@H](O)[C@@]1(C)C(=O)[C@H](O)C3=C(C)[C@@H](OC(=O)[C@H](O)[C@@H](NC(=O)OC(C)(C)C)c4ccccc4)C[C@@](O)([C@@H](OC(=O)c4ccccc4)[C@H]21)C3(C)C` [Docetaxel] + C[C@]1(O)C[C@@H](c2nc(-c3ccc4ccc(-c5ccccc5)nc4c3)c3c(N)nccn32)C1 [Linsitinib] (partner 1 µM) was tested. Which relative viability (EKVX; first compound 0.0002 µM) did it give?
Its relative viability is 0.899.

What about the relative viability (EKVX; first compound 0.000632 µM) of the same molecule?
Its relative viability is 0.804.

And the relative viability (EKVX; first compound 0.002 µM)?
The relative viability was 0.427.

And the relative viability (EKVX; first compound 0.006325 µM)?
Its relative viability is 0.23.

And the relative viability (EKVX; first compound 0.02 µM)?
The relative viability was 0.115.

What about the relative viability (EMC-BAC-2; first compound 0.0002 µM) of the same molecule?
The relative viability was 0.799.

What about the relative viability (EMC-BAC-2; first compound 0.000632 µM) of the same molecule?
The relative viability was 0.665.

And the relative viability (EMC-BAC-2; first compound 0.002 µM)?
The relative viability was 0.463.

And the relative viability (EMC-BAC-2; first compound 0.006325 µM)?
Its relative viability is 0.31.

And the relative viability (EMC-BAC-2; first compound 0.02 µM)?
Its relative viability is 0.207.

What about the relative viability (EPLC-272H; first compound 0.0002 µM) of the same molecule?
The relative viability was 1.08.

And the relative viability (EPLC-272H; first compound 0.000632 µM)?
The relative viability was 0.954.

And the relative viability (EPLC-272H; first compound 0.002 µM)?
The relative viability was 0.54.

What about the relative viability (EPLC-272H; first compound 0.006325 µM) of the same molecule?
Its relative viability is 0.126.

And the relative viability (EPLC-272H; first compound 0.02 µM)?
Its relative viability is 0.0815.

What about the relative viability (HCC-78; first compound 0.0002 µM) of the same molecule?
Its relative viability is 0.469.

And the relative viability (HCC-78; first compound 0.000632 µM)?
The relative viability was 0.429.

What about the relative viability (HCC-78; first compound 0.002 µM) of the same molecule?
Its relative viability is 0.339.

What about the relative viability (HCC-78; first compound 0.006325 µM) of the same molecule?
The relative viability was 0.284.

And the relative viability (HCC-78; first compound 0.02 µM)?
The relative viability was 0.222.

What about the relative viability (HCC-827; first compound 0.0002 µM) of the same molecule?
Its relative viability is 0.971.

And the relative viability (HCC-827; first compound 0.000632 µM)?
Its relative viability is 0.927.

And the relative viability (HCC-827; first compound 0.002 µM)?
Its relative viability is 0.892.

What about the relative viability (HCC-827; first compound 0.006325 µM) of the same molecule?
Its relative viability is 0.438.

What about the relative viability (HCC-827; first compound 0.02 µM) of the same molecule?
The relative viability was 0.347.

What about the relative viability (LCLC-103H; first compound 0.0002 µM) of the same molecule?
Its relative viability is 0.934.

And the relative viability (LCLC-103H; first compound 0.000632 µM)?
Its relative viability is 1.18.

And the relative viability (LCLC-103H; first compound 0.002 µM)?
The relative viability was 0.919.

What about the relative viability (LCLC-103H; first compound 0.006325 µM) of the same molecule?
The relative viability was 0.479.

What about the relative viability (LCLC-103H; first compound 0.02 µM) of the same molecule?
The relative viability was 0.503.

And the relative viability (LK-2; first compound 0.0002 µM)?
Its relative viability is 0.534.

And the relative viability (LK-2; first compound 0.000632 µM)?
The relative viability was 0.445.

What about the relative viability (LK-2; first compound 0.002 µM) of the same molecule?
The relative viability was 0.154.

And the relative viability (LK-2; first compound 0.006325 µM)?
Its relative viability is 0.151.

And the relative viability (LK-2; first compound 0.02 µM)?
Its relative viability is 0.156.

And the relative viability (LU99A; first compound 0.0002 µM)?
Its relative viability is 0.52.

And the relative viability (LU99A; first compound 0.000632 µM)?
The relative viability was 0.458.

And the relative viability (LU99A; first compound 0.002 µM)?
Its relative viability is 0.356.

And the relative viability (LU99A; first compound 0.006325 µM)?
The relative viability was 0.262.

And the relative viability (LU99A; first compound 0.02 µM)?
Its relative viability is 0.169.

And the relative viability (NCI-H1563; first compound 0.0002 µM)?
The relative viability was 1.19.

What about the relative viability (NCI-H1563; first compound 0.000632 µM) of the same molecule?
The relative viability was 1.15.

And the relative viability (NCI-H1563; first compound 0.002 µM)?
The relative viability was 1.05.

And the relative viability (NCI-H1563; first compound 0.006325 µM)?
The relative viability was 0.988.

What about the relative viability (NCI-H1563; first compound 0.02 µM) of the same molecule?
Its relative viability is 0.617.

What about the relative viability (NCI-H1666; first compound 0.0002 µM) of the same molecule?
Its relative viability is 0.712.

What about the relative viability (NCI-H1666; first compound 0.000632 µM) of the same molecule?
Its relative viability is 0.404.

What about the relative viability (NCI-H1666; first compound 0.002 µM) of the same molecule?
The relative viability was 0.383.

What about the relative viability (NCI-H1666; first compound 0.006325 µM) of the same molecule?
The relative viability was 0.28.

What about the relative viability (NCI-H1666; first compound 0.02 µM) of the same molecule?
The relative viability was 0.211.

And the relative viability (NCI-H1975; first compound 0.0002 µM)?
Its relative viability is 0.861.

And the relative viability (NCI-H1975; first compound 0.000632 µM)?
The relative viability was 0.962.

What about the relative viability (NCI-H1975; first compound 0.002 µM) of the same molecule?
The relative viability was 0.309.

And the relative viability (NCI-H1975; first compound 0.006325 µM)?
The relative viability was 0.189.

And the relative viability (NCI-H1975; first compound 0.02 µM)?
Its relative viability is 0.161.

What about the relative viability (NCI-H2126; first compound 0.0002 µM) of the same molecule?
The relative viability was 0.747.

What about the relative viability (NCI-H2126; first compound 0.000632 µM) of the same molecule?
Its relative viability is 0.683.

And the relative viability (NCI-H2126; first compound 0.002 µM)?
The relative viability was 0.631.

And the relative viability (NCI-H2126; first compound 0.006325 µM)?
The relative viability was 0.402.

And the relative viability (NCI-H2126; first compound 0.02 µM)?
The relative viability was 0.291.

And the relative viability (NCI-H23; first compound 0.0002 µM)?
The relative viability was 0.579.

And the relative viability (NCI-H23; first compound 0.000632 µM)?
The relative viability was 0.572.

What about the relative viability (NCI-H23; first compound 0.002 µM) of the same molecule?
The relative viability was 0.465.

What about the relative viability (NCI-H23; first compound 0.006325 µM) of the same molecule?
Its relative viability is 0.22.

What about the relative viability (NCI-H23; first compound 0.02 µM) of the same molecule?
Its relative viability is 0.126.

And the relative viability (NCI-H2405; first compound 0.0002 µM)?
The relative viability was 0.95.

And the relative viability (NCI-H2405; first compound 0.000632 µM)?
The relative viability was 0.913.

What about the relative viability (NCI-H2405; first compound 0.002 µM) of the same molecule?
Its relative viability is 0.667.

And the relative viability (NCI-H2405; first compound 0.006325 µM)?
The relative viability was 0.438.

And the relative viability (NCI-H2405; first compound 0.02 µM)?
Its relative viability is 0.316.

What about the relative viability (NCI-H322M; first compound 0.0002 µM) of the same molecule?
The relative viability was 0.852.

And the relative viability (NCI-H322M; first compound 0.000632 µM)?
Its relative viability is 0.989.

What about the relative viability (NCI-H322M; first compound 0.002 µM) of the same molecule?
The relative viability was 0.878.

What about the relative viability (NCI-H322M; first compound 0.006325 µM) of the same molecule?
The relative viability was 0.547.

And the relative viability (NCI-H322M; first compound 0.02 µM)?
Its relative viability is 0.374.

And the relative viability (PC-14; first compound 0.0002 µM)?
Its relative viability is 0.992.

And the relative viability (PC-14; first compound 0.000632 µM)?
Its relative viability is 0.957.

And the relative viability (PC-14; first compound 0.002 µM)?
Its relative viability is 0.606.

And the relative viability (PC-14; first compound 0.006325 µM)?
The relative viability was 0.152.

What about the relative viability (PC-14; first compound 0.02 µM) of the same molecule?
Its relative viability is 0.064.

What about the relative viability (RERF-LC-KJ; first compound 0.0002 µM) of the same molecule?
Its relative viability is 0.864.

What about the relative viability (RERF-LC-KJ; first compound 0.000632 µM) of the same molecule?
Its relative viability is 0.826.

And the relative viability (RERF-LC-KJ; first compound 0.002 µM)?
Its relative viability is 0.504.

And the relative viability (RERF-LC-KJ; first compound 0.006325 µM)?
The relative viability was 0.207.

And the relative viability (RERF-LC-KJ; first compound 0.02 µM)?
The relative viability was 0.145.

And the relative viability (SK-LU-1; first compound 0.0002 µM)?
The relative viability was 0.899.

What about the relative viability (SK-LU-1; first compound 0.000632 µM) of the same molecule?
The relative viability was 0.437.

And the relative viability (SK-LU-1; first compound 0.002 µM)?
Its relative viability is 0.406.

And the relative viability (SK-LU-1; first compound 0.006325 µM)?
The relative viability was 0.344.

And the relative viability (SK-LU-1; first compound 0.02 µM)?
Its relative viability is 0.232.

What about the relative viability (SW 1573; first compound 0.0002 µM) of the same molecule?
Its relative viability is 0.804.

And the relative viability (SW 1573; first compound 0.000632 µM)?
Its relative viability is 0.594.

What about the relative viability (SW 1573; first compound 0.002 µM) of the same molecule?
The relative viability was 0.279.

And the relative viability (SW 1573; first compound 0.006325 µM)?
The relative viability was 0.276.

And the relative viability (SW 1573; first compound 0.02 µM)?
The relative viability was 0.178.
